This is an account of results in patent publication US20250215029A1 (Recludix Pharma, Inc., priority 2022, published 2025).

The target of the assay is T1, pY705-STAT3 in PBMC (Homo sapiens, UniProt P40763).
T1 construct: Cryopreserved Peripheral Blood Mononuclear Cells (PBMC) are from AllCells; host or cells: cryopreserved PBMC
T1 sequence (P40763 whole entry): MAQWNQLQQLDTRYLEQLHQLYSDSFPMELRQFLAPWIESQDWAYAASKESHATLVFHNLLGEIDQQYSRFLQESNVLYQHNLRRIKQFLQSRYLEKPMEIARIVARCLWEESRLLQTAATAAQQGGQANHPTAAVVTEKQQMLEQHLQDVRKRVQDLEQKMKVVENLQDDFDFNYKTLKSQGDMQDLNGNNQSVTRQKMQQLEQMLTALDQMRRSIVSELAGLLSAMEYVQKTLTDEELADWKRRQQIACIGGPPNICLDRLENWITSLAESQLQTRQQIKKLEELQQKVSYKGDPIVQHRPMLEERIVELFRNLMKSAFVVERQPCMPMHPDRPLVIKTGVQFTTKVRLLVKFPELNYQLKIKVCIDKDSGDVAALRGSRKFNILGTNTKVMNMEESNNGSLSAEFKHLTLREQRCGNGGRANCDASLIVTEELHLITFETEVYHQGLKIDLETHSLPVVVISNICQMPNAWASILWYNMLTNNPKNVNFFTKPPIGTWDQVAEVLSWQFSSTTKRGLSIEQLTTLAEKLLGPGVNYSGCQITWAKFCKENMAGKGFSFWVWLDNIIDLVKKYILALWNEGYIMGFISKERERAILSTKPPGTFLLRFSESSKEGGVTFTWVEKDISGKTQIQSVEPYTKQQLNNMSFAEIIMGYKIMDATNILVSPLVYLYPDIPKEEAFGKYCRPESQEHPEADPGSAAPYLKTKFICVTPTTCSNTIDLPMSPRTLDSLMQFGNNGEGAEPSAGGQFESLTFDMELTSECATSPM
The assay can be described thus: MSD-pSTAT-PBMC Assay (pSTAT3, IL-6 stimulated). It counts as cell-based. The settings on record: PBMC, compound 3 hrs, then 10 ng/mL IL-6 for 10 min; Table 115; read-out: STAT3. An excerpt: Cryopreserved Peripheral Blood Mononuclear Cells (PBMC) are from AllCells. Recombinant Human IL-4 and IL-6 are from Peprotech. Mouse monoclonal anti-STAT3 antibody, rabbit monoclonal anti-pY705-STAT3 antibody, rabbit monoclonal Anti-pY641-STAT6 antibody, and lysis buffer are from Cell Signaling Technology (CST). Mouse monoclonal anti-STAT6 antibody is from BioLegend. Assay plates, blocker, and anti-rabbit secondary antibody are from Meso Scale Discovery (MSD).
Cyropreserved PBMCs were thawed out and allowed to recover overnight in IMDM+10% heat-inactivated FBS prior to plating 50,000 (STAT3) or 25,000 (STAT6) cells per well in 96-well U-bottom tissue culture plates. Cells were treated with compound for 3 hrs, then stimulated with 10 ng/mL IL-6 (STAT3) or 1 ng/mL IL-4 (STAT6) for 10 min. Cells were then spun down and washed with ice-cold PBS prior to lysing the cell pellet with 1× lysis buffer (CST) with 1× HALT protease and phosphatase inhibitor cocktail (Thermo). Lysates were transferred to and incubated overnight at 4° C. with shaking in QuickPlex 96-well high bind assay plates (MSD) pre-coated overnight with 30 μL per well of 0.6 μg/mL mouse monoclonal anti-STAT3 antibody (STAT3) or 2 μg/mL mouse monoclonal anti-STAT6 antibody (STAT6) in 1× PBS, and pre-blocked for 1 hour with 3% Blocker-A (MSD). Captured protein in the assay plates were then washed and probed with 25 μL per well of […] rabbit monoclonal anti-pY705-STAT3 antibody (STAT3) or 0.18 μg/ml rabbit monoclonal Anti-pY641-STAT6 antibody (STAT6) in 1% Blocker-A for 1 hour at room temperature with shaking, then washed and probed with 25 ul per well of 1 ug/ml Sulfo-TAG Labeled Goat Anti-Rabbit Antibody (MSD) in 1% Blocker-A for 1 hour at room temperature with shaking. Assay plates were then washed and 150 μL of 1× Read Buffer-T (MSD) was added to each well prior to reading on an SQ120 MSD Plate Reader. Assay signal from each sample was subtracted by the signal from unstimulated control wells and normalized to DMSO control wells. IC50 values were calculated using Graph Pad Prism Dose-Response Nonlinear Regression with variable slope. For both pSTAT3 and pSTAT6 A=≤100 nM; B 100-1000 nM; C=>1000-3000 nM; D=>3 μM; and NT=Not Tested.
On to `CCCOC(=O)[C@H](C)NP(=O)(Cc1ccc2sc(C(=O)N[C@H]3CCCC[C@H]4CC[C@@H](C(=O)N5CC(c6cnccc6F)C5)N4C3=O)cc2c1)Oc1ccccc1` (stereo partly drawn) [Compound 274, propyl (((2-(((3S,6S,10aS)-3-(3-(4-fluoropyridin-3-yl)azetidine-1-carbonyl)-5-oxodecahydropyrrolo [1,2-a]azocin-6-yl)carbamoyl)benzo [b]thiophen-5-yl)methyl)(phenoxy)phosphoryl)-L-alaninate], for which the IC50 is < 100 nM.

As for `COc1ccncc1C1CN(C(=O)[C@@H]2CC[C@@H]3CCC[C@H](NC(=O)c4cc5cc([C@H](F)[P@@](=O)(N[C@@H](C)C(=O)OCc6ccccc6)Oc6ccccc6)ccc5s4)C(=O)N32)C1` (single isomer, unassigned) [Compound 1051], the IC50 was 100 to 1000 nM.

For `CCCOC(=O)[C@H](C)NP(=O)(Cc1ccc2sc(C(=O)N[C@H]3CCC[C@H]4CC[C@@H](C(=O)N5CC(c6cnccc6N6CC[C@H]6COC)C5)N4C3=O)cc2c1)Oc1ccccc1` (stereo partly drawn) [Compound 301, propyl (((2-(((3S,6S,9aS)-3-(3-(4-((S)-2-(methoxymethyl)azetidin-1-yl)pyridin-3-yl)azetidine-1-carbonyl)-5-oxooctahydro-1H-pyrrolo[1,2-a]azepin-6-yl)carbamoyl)benzo [b]thiophen-5-yl)methyl)(phenoxy)phosphoryl)-L-alaninate], the IC50 is < 100 nM.

In the case of `CCCOC(=O)[C@H](C)NP(=O)(Cc1ccc2sc(C(=O)N[C@H]3CCC[C@H]4CC[C@@H](C(=O)N5CC(c6cnccc6OC(F)F)C5)N4C3=O)cc2c1)Oc1ccccc1` (stereo partly drawn) [Compound 996, propyl (((2-(((3S,6S,9aS)-3-(3-(4-(difluoromethoxy)pyridin-3-yl)azetidine-1-carbonyl)-5-oxooctahydro-1H-pyrrolo[1,2-a]azepin-6-yl)carbamoyl)benzo [b]thiophen-5-yl)methyl)(phenoxy) )phosphoryl)-L-alaninate], the IC50 was in the range of 100 to 1000 nM.

`CCCOC(=O)[C@H](C)NP(=O)(Cc1ccc2sc(C(=O)N[C@H]3C[C@@H](C)C[C@H]4CC[C@@H](C(=O)N5CC(c6cncnc6N6CCC6)C5)N4C3=O)cc2c1)Oc1ccccc1` (stereo partly drawn) [Compound 1074, propyl (((2-(((3S,6S,8R,9aR)-3-(3-(4-(azetidin-1-yl)pyrimidin-5-yl)azetidine-1-carbonyl)-8-methyl-5-oxooctahydro-1H-pyrrolo[1,2-a]azepin-6-yl)carbamoyl)benzo [b]thiophen-5-yl)methyl)(phenoxy)phosphoryl)-L-alaninate]: the IC50 was < 100 nM.

In the case of `CCCOC(=O)[C@H](C)N[P@@](=O)(Oc1ccccc1)[C@H](F)c1ccc2sc(C(=O)N[C@H]3C[C@@H](C)C[C@H]4CC[C@@H](C(=O)N5CC(c6cnccc6C)C5)N4C3=O)cc2c1` (single isomer, unassigned) [Compound 1001], the IC50 is < 100 nM.

`CCCOC(=O)[C@H](C)NP(=O)(Cc1ccc2sc(C(=O)N[C@H]3CCC[C@H]4CC[C@@H](C(=O)N5CC(c6cccnc6)C5)N4C3=O)cc2c1)Oc1ccccc1` (stereo partly drawn) [Compound 307, propyl (((2-(((3S,6S,9aS)-5-oxo-3-(3-(pyridin-3-yl)azetidine-1-carbonyl)octahydro-1H-pyrrolo[1,2-a]azepin-6-yl)carbamoyl)benzo [b]thiophen-5-yl)methyl)(phenoxy)phosphoryl)-L-alaninate]: the IC50 was > 3000 nM.

Regarding `CCCOC(=O)[C@H](C)N[P@@](=O)(Oc1ccccc1)[C@H](F)c1ccc2sc(C(=O)N[C@H]3CCC[C@H]4CC[C@@H](C(=O)N5CC(c6cccnc6)C5)N4C3=O)cc2c1` (single isomer, unassigned) [Compound 463], the IC50 is < 100 nM.

In the case of `CCCOC(=O)[C@H](C)NP(=O)(Cc1ccc2sc(C(=O)N[C@H]3CC[C@H](C)C[C@H]4CC[C@@H](C(=O)N5CC(c6cnccc6C)C5)N4C3=O)cc2c1)Oc1ccccc1` (stereo partly drawn) [Compound 286, propyl (((2-(((3S,6S,9S,10aR)-9-methyl-3-(3-(4-methylpyridin-3-yl)azetidine-1-carbonyl)-5-oxodecahydropyrrolo [1,2-a]azocin-6-yl)carbamoyl)benzo [b]thiophen-5-yl)methyl)(phenoxy)phosphoryl)-L-alaninate], the IC50 is < 100 nM.

On to `CCCOC(=O)[C@H](C)NP(=O)(Oc1ccccc1)C(F)c1ccc2sc(C(=O)N[C@H]3CCCC[C@H]4CC[C@@H](C(=O)NCc5cnc6[nH]cnc6c5)N4C3=O)cc2c1` (stereo partly drawn) [Compound 265, propyl (((2-(((3S,6S,10aS)-3-(((3H-imidazo[4,5-b]pyridin-6-yl)methyl)carbamoyl)-5-oxodecahydropyrrolo [1,2-a]azocin-6-yl)carbamoyl)benzo [b]thiophen-5-yl)fluoromethyl) (phenoxy)phosphoryl)-L-alaninate], for which the IC50 was 100 to 1000 nM.

Consider `CCCOC(=O)[C@H](C)NP(=O)(Oc1ccccc1)[C@H](F)c1ccc2sc(C(=O)N[C@H]3CCC[C@H]4CC[C@@H](C(=O)N5CC(c6cncnc6N6CCOCC6)C5)N4C3=O)cc2c1` (stereo partly drawn) [Compound 1067, propyl (((S)-fluoro(2-(((3S,6S,9aS)-3-(3-(4-morpholinopyrimidin-5-yl)azetidine-1-carbonyl)-5-oxooctahydro-1H-pyrrolo[1,2-a]azepin-6-yl)carbamoyl)benzo [b]thiophen-5-yl)methyl)(phenoxy)phosphoryl)-L-alaninate], for which the IC50 is 100 to 1000 nM.

As for `O=C(Cc1ccccc1)SCCOP(=O)(OCCSC(=O)Cc1ccccc1)C(F)(F)c1ccc2sc(C(=O)N[C@H]3CCC[C@H]4CC[C@@H](C(=O)N5CC(c6cccnc6)C5)N4C3=O)cc2c1` [Compound 1006, S,S′-((((difluoro(2-(((3S,6S,9aS)-5-oxo-3-(3-(pyridin-3-yl)azetidine-1-carbonyl)octahydro-1H-pyrrolo[1,2-a]azepin-6-yl)carbamoyl)benzo [b]thiophen-5-yl)methyl)phosphoryl)bis(oxy))bis(ethane-2,1-diyl)) bis(2-phenylethanethioate)], the IC50 was < 100 nM.

For `Cc1ccncc1C1CN(C(=O)[C@@H]2CC[C@@H]3CCC[C@H](NC(=O)c4cc5cc(CP(=O)(N[C@@H](C)C(=O)OC(C)C)Oc6ccccc6)ccc5s4)C(=O)N32)C1` (stereo partly drawn) [Compound 298, isopropyl (((2-(((3S,6S,9aS)-3-(3-(4-methylpyridin-3-yl)azetidine-1-carbonyl)-5-oxooctahydro-1H-pyrrolo[1,2-a]azepin-6-yl)carbamoyl)benzo [b]thiophen-5-yl)methyl)(phenoxy)phosphoryl)-L-alaninate], the IC50 is 100 to 1000 nM.

For `CCCOC(=O)[C@H](C)NP(=O)(Oc1ccccc1)C(F)c1ccc2sc(C(=O)N[C@H]3CCC[C@H]4CC[C@@H](C(=O)N5CC(c6cc(F)ccc6OC)C5)N4C3=O)cc2c1` (stereo partly drawn) [Compound 957, propyl ((fluoro(2-(((3S,6S,9aS)-3-(3-(5-fluoro-2-methoxyphenyl)azetidine-1-carbonyl)-5-oxooctahydro-1H-pyrrolo[1,2-a]azepin-6-yl)carbamoyl)benzo [b]thiophen-5-yl)methyl)(phenoxy)phosphoryl)-L-alaninate], the IC50 is > 3000 nM.

As to `COC1(c2cnccc2C)CN(C(=O)[C@@H]2CC[C@@H]3CCC[C@H](NC(=O)c4cc5cc(C(F)(F)P(=O)(OCCSC(=O)CC(C)C)OCCSC(=O)CC(C)C)ccc5s4)C(=O)N32)C1` [Compound 963, S,S′-((((difluoro(2-(((3S,6S,9aS)-3-(3-methoxy-3-(4-methylpyridin-3-yl)azetidine-1-carbonyl)-5-oxooctahydro-1H-pyrrolo[1,2-a]azepin-6-yl)carbamoyl)benzo [b]thiophen-5-yl)methyl)phosphoryl)bis(oxy))bis(ethane-2,1-diyl)) bis(3-methylbutanethioate)], the IC50 fell in the range of 100 to 1000 nM.

As to `CCCOC(=O)[C@H](C)NP(=O)(Oc1ccccc1)[C@@H](F)c1ccc2sc(C(=O)N[C@H]3CCC[C@H]4CC[C@@H](C(=O)N5CC(c6cncc(F)c6O)C5)N4C3=O)cc2c1` (stereo partly drawn) [Compound 1060, propyl (((R)-fluoro(2-(((3S,6S,9aS)-3-(3-(5-fluoro-4-hydroxypyridin-3-yl)azetidine-1-carbonyl)-5-oxooctahydro-1H-pyrrolo[1,2-a]azepin-6-yl)carbamoyl)benzo [b]thiophen-5-yl)methyl)(phenoxy)phosphoryl)-L-alaninate], the IC50 lay within 100 to 1000 nM.
